Read-outs that look alike come from different tables or passages of the source.
What was measured:
clinical = format: in vivo, human
Procedure: A pharmacokinetic (PK) analysis was conducted of oritavancin from patients having complicated skin and skin structure infections (cSSSI) or bacteremia. The population for the analysis consisted of oritavancin-treated subjects and patients from 12 studies, consisting of nine Phase 1 studies, two Phase 2 studies, and one Phase 2/3 study. Oritavancin was administered as both single- and multiple-dose intravenous (IV) infusions in fixed doses ranging from 100 to 800 mg or weight-based doses ranging from 0.02 to 10 mg/kg.
Results: The final analysis population contained data from a total of 560 subjects: 200 from the Phase 1 studies, 86 from the Phase 2 bacteremia study, 29 from the Phase 2 cSSSI study, and 245 from the Phase 2/3 cSSSI study. The final pharmacokinetic analysis dataset contained a total of 6,336 oritavancin plasma concentrations, collected from these 560 subjects, of which 6,290 oritavancin concentrations were included in the results. The majority of subjects (>90%) contributed at least six samples to the population pharmacokinetic analysis.
A wide range of oritavancin doses was administered across the studies included in the population PK analysis, where 42% (236 of 560) of subjects received ≧400 mg, while 25% (142 of 560) received 800 mg or more. A histogram of the oritavancin doses administered is shown in FIG. 6, with midpoint values for each dose range shown over each bar. The duration over which oritavancin was infused ranged from 0.13 to 6.5 hr across all studies; however, oritavancin was administered over 1 hr for the majority of subjects. Histograms of the actual infusion durations and rates are shown in FIGS. 7 and 8, respectively, with midpoint values shown for each infusion duration or rate over each bar.
The final structural PK model for oritavancin in this analysis was a three-compartment model (one central, two peripheral) with a zero-order intravenous infusion rate and first-order, linear elimination. The model fit the data well (data not shown), regardless of the observed concentration or administered dose. If a nonlinear model had been necessary, there would have been significant bias in the weighted residuals at the lowest and/or highest concentrations and/or doses. No trends for decreasing CL with increasing dose were found.

[1] = Phase 2 cSSSI study: safety and tolerability; format: in vivo, human
Procedure: A phase 2, multi-center, randomized, double-blind, parallel, active-comparator study in which three dose regimens of oritavancin were explored as a treatment for cSSSI due to gram-positive pathogens was conducted using: a daily dose (200 mg) administered for three to seven days, a single dose (1200 mg), and an infrequent dose (800 mg dose with option for an additional 400 mg on Day 5).
Patients were randomized through an interactive voice response system in a 1:1:1 ratio to receive either 1) oritavancin […] daily dose: 200 mg IV daily for 3 to 7 days as determined by the investigator based on clinical criteria, 2) oritavancin single dose: 1200 mg oritavancin IV on Day 1, or; 3) oritavancin infrequent dose: 800 mg IV on Day 1 with optional 400 mg IV on Day 5 as determined by investigator based on clinical criteria. During randomization patients were stratified by disease categories of wound infection, major abscess, and cellulitis. Placebo IV (5% dextrose in water) was given to maintain the blind.
Analyses were performed on four patient populations: intent-to-treat (ITT), modified intent-to-treat (MITT), clinically evaluable (CE) and microbiologically evaluable (ME). The ITT population included patients who were randomized to treatment and received any amount of study medication. Two patients who were potentially unblinded were excluded from the ITT population for all efficacy analyses. The MITT population included all ITT patients with a gram-positive pathogen isolated at baseline.

## CN[C@H](CC(C)C)C(=O)N[C@H]1C(=O)N[C@@H](CC(N)=O)C(=O)N[C@H]2C(=O)N[C@H]3C(=O)N[C@H](C(=O)N[C@H](C(=O)O)c4cc(O)cc(O)c4-c4cc3ccc4O)[C@H](O[C@H]3C[C@](C)(N)[C@@H](O)[C@H](C)O3)c3ccc(c(Cl)c3)Oc3cc2cc(c3O[C@@H]2O[C@H](CO)[C@@H](O)[C@H](O)[C@H]2O[C@H]2C[C@](C)(NCc3ccc(-c4ccc(Cl)cc4)cc3)[C@@H](O)[C@H](C)O2)Oc2ccc(cc2Cl)[C@H]1O [Oritavancin, N-(4-(4-chlorophenyl)benzyl)A82846B]
clinical; 180-330 mg/day (n = 140)
  Cmin, Mean: 2580 ng/mL
  Cmin, Median: 2200 ng/mL
clinical; <180 mg/day (n = 181)
  Cmin, Mean: 1170 ng/mL
  Cmin, Median: 949 ng/mL
clinical; >330 mg/day (n = 239)
  Cmin, Mean: 12500 ng/mL
  Cmin, Median: 11000 ng/mL
clinical; healthy subjects, Multiple Dose (n = 109)
  Vc: 5.10 L
clinical; healthy subjects, Multiple Dose (n = 109), normalized to a dose of 200 mg, after a median of 4 (2-14) days
  Cmin: 11500 ng/mL
clinical; healthy subjects, Single Dose (n = 91)
  Vc: 5.30 L
clinical; healthy subjects, Single Dose (n = 91), normalized to a dose of 200 mg
  Cmin: 3300 ng/mL
clinical; human, in vivo
  Plasma half-life: prolonged
clinical; human, in vivo, 200 mg, healthy subjects, Multiple Dose (n = 109), normalized to a dose of 200 mg, after a median of 4 (2-14) days, read-out: AUC0-24
  AUC(0-t): 459 µg·h/mL
clinical; human, in vivo, 200 mg, healthy subjects, Multiple Dose (n = 109), normalized to a dose of 200 mg, after a median of 4 (2-14) days, read-out: Cmax
  Cmax: 46800 ng/mL
clinical; human, in vivo, 200 mg, healthy subjects, Single Dose (n = 91), normalized to a dose of 200 mg, read-out: AUC0-24
  AUC(0-t): 216 µg·h/mL
clinical; human, in vivo, 200 mg, healthy subjects, Single Dose (n = 91), normalized to a dose of 200 mg, read-out: Cmax
  Cmax: 33900 ng/mL
clinical; human, in vivo, 180-330 mg/day (n = 140), read-out: AUC0-24, Mean
  AUC(0-t): 181 µg·h/mL
clinical; human, in vivo, 180-330 mg/day (n = 140), read-out: AUC0-24, Median
  AUC(0-t): 171 µg·h/mL
clinical; human, in vivo, 180-330 mg/day (n = 140), read-out: CL, Mean (converted)
  clearance: 9.57 mL/min
clinical; human, in vivo, 180-330 mg/day (n = 140), read-out: CL, Median (converted)
  clearance: 9.07 mL/min
clinical; human, in vivo, 180-330 mg/day (n = 140), read-out: Cmax, Mean
  Cmax: 33400 ng/mL
clinical; human, in vivo, 180-330 mg/day (n = 140), read-out: Cmax, Median
  Cmax: 30000 ng/mL
clinical; human, in vivo, 180-330 mg/day (n = 140), read-out: T1/2, α, Mean (converted)
  half-life: 2.13 h
clinical; human, in vivo, 180-330 mg/day (n = 140), read-out: T1/2, α, Median (converted)
  half-life: 2.13 h
clinical; human, in vivo, 180-330 mg/day (n = 140), read-out: T1/2, β, Mean (converted)
  half-life: 29.7 h
clinical; human, in vivo, 180-330 mg/day (n = 140), read-out: T1/2, β, Median (converted)
  half-life: 29.3 h
clinical; human, in vivo, 180-330 mg/day (n = 140), read-out: T1/2, γ, Mean (converted)
  half-life: 376 h
clinical; human, in vivo, 180-330 mg/day (n = 140), read-out: T1/2, γ, Median (converted)
  half-life: 373 h
clinical; human, in vivo, <180 mg/day (n = 181), read-out: AUC0-24, Mean
  AUC(0-t): 90 µg·h/mL
clinical; human, in vivo, <180 mg/day (n = 181), read-out: AUC0-24, Median
  AUC(0-t): 73.6 µg·h/mL
clinical; human, in vivo, <180 mg/day (n = 181), read-out: CL, Mean (converted)
  clearance: 9.3 mL/min
clinical; human, in vivo, <180 mg/day (n = 181), read-out: CL, Median (converted)
  clearance: 9.17 mL/min
clinical; human, in vivo, <180 mg/day (n = 181), read-out: Cmax, Mean
  Cmax: 17800 ng/mL
clinical; human, in vivo, <180 mg/day (n = 181), read-out: Cmax, Median
  Cmax: 14300 ng/mL
clinical; human, in vivo, <180 mg/day (n = 181), read-out: T1/2, α, Mean (converted)
  half-life: 2.01 h
clinical; human, in vivo, <180 mg/day (n = 181), read-out: T1/2, α, Median (converted)
  half-life: 1.97 h
clinical; human, in vivo, <180 mg/day (n = 181), read-out: T1/2, β, Mean (converted)
  half-life: 27.4 h
clinical; human, in vivo, <180 mg/day (n = 181), read-out: T1/2, β, Median (converted)
  half-life: 27.5 h
clinical; human, in vivo, <180 mg/day (n = 181), read-out: T1/2, γ, Mean (converted)
  half-life: 376 h
clinical; human, in vivo, <180 mg/day (n = 181), read-out: T1/2, γ, Median (converted)
  half-life: 387 h
clinical; human, in vivo, >330 mg/day (n = 239), read-out: AUC0-24, Mean
  AUC(0-t): 750 µg·h/mL
clinical; human, in vivo, >330 mg/day (n = 239), read-out: AUC0-24, Median
  AUC(0-t): 712 µg·h/mL
clinical; human, in vivo, >330 mg/day (n = 239), read-out: CL, Mean (converted)
  clearance: 7.35 mL/min
clinical; human, in vivo, >330 mg/day (n = 239), read-out: CL, Median (converted)
  clearance: 6.68 mL/min
clinical; human, in vivo, >330 mg/day (n = 239), read-out: Cmax, Mean
  Cmax: 106000 ng/mL
clinical; human, in vivo, >330 mg/day (n = 239), read-out: Cmax, Median
  Cmax: 105000 ng/mL
clinical; human, in vivo, >330 mg/day (n = 239), read-out: T1/2, α, Mean (converted)
  half-life: 2.45 h
clinical; human, in vivo, >330 mg/day (n = 239), read-out: T1/2, α, Median (converted)
  half-life: 2.35 h
clinical; human, in vivo, >330 mg/day (n = 239), read-out: T1/2, β, Mean (converted)
  half-life: 31.4 h
clinical; human, in vivo, >330 mg/day (n = 239), read-out: T1/2, β, Median (converted)
  half-life: 29.3 h
clinical; human, in vivo, >330 mg/day (n = 239), read-out: T1/2, γ, Mean (converted)
  half-life: 353 h
clinical; human, in vivo, >330 mg/day (n = 239), read-out: T1/2, γ, Median (converted)
  half-life: 347 h
clinical; human, in vivo, healthy subjects, Multiple Dose (n = 109), read-out: CL (converted)
  clearance: 5.15 mL/min
clinical; human, in vivo, healthy subjects, Multiple Dose (n = 109), read-out: T1/2, α (converted)
  half-life: 2.82 h
clinical; human, in vivo, healthy subjects, Multiple Dose (n = 109), read-out: T1/2, β (converted)
  half-life: 33 h
clinical; human, in vivo, healthy subjects, Multiple Dose (n = 109), read-out: T1/2, γ (converted)
  half-life: 320 h
clinical; human, in vivo, healthy subjects, Single Dose (n = 91), read-out: CL (converted)
  clearance: 6.7 mL/min
clinical; human, in vivo, healthy subjects, Single Dose (n = 91), read-out: T1/2, α (converted)
  half-life: 2.25 h
clinical; human, in vivo, healthy subjects, Single Dose (n = 91), read-out: T1/2, β (converted)
  half-life: 19.8 h
clinical; human, in vivo, healthy subjects, Single Dose (n = 91), read-out: T1/2, γ (converted)
  half-life: 316 h
[1]; all groups (25 patients)
  Patients with a serious adverse event: 8.3%
[1]; all three treatment groups together (10/302)
  Early discontinuation of study medication for lack of efficacy: 3.3%
[1]; daily dose group
  Adverse events being mild: 51.8%
  Adverse events considered mild or moderate in intensity: 85.7%
  Incidence of serious adverse events: 11%
  Patients who discontinued study medication due to an adverse event: 3.0%
  Patients with phlebitis assessed as related to study medication: 3.0%
[1]; daily dose group, none related to study medication
  Patients who died during the study (n/total): 3/100
[1]; infrequent dose group
  Adverse events being mild: 60.3%
  Adverse events considered mild or moderate in intensity: 95.2%
  Incidence of serious adverse events: 6.8%
  Patients who discontinued study medication due to an adverse event: 1.0%
  Patients with phlebitis assessed as related to study medication: 8.7%
[1]; infrequent dose group, 800 mg only
  Patients with related phlebitis: 11.8%
[1]; infrequent dose group, 800 mg plus the 400 mg dose
  Patients with related phlebitis: 7.2%
[1]; infrequent dose group, none related to study medication
  Patients who died during the study (n/total): 2/103
[1]; single dose group
  Adverse events being mild: 58.2%
  Adverse events considered mild or moderate in intensity: 94.5%
  Incidence of serious adverse events: 7.1%
  Patients who died during the study (n/total): 0/99
  Patients who discontinued study medication due to an adverse event: 3.0%
  Patients with phlebitis assessed as related to study medication: 4.0%
[1]; single dose group (dyspnoea; hypersensitivity)
  Serious adverse event investigator-assessed as related to study medication: Two
[1]; single dose group compared to the daily and infrequent dose groups
  Blood creatine phosphokinase (CPK) increase: higher incidence
